Experimental data reported in publication doi:10.1101/2022.09.09.507317v1 (biorxiv, 2022).

Key:
Assay in all cases: actin-activated ATPase, PK/LDH-coupled NADH absorbance
PfMyoA = biological target: T1, PfMyoA (Plasmodium falciparum, UniProt Q8IDR3); format: biochemical; settings: 2 mM ATP, bovine cardiac actin, 3 mM MgCl2, 5 mM KCl, pH 7.4, 2% DMSO; n = 5
T1 sequence (Q8IDR3 1-818): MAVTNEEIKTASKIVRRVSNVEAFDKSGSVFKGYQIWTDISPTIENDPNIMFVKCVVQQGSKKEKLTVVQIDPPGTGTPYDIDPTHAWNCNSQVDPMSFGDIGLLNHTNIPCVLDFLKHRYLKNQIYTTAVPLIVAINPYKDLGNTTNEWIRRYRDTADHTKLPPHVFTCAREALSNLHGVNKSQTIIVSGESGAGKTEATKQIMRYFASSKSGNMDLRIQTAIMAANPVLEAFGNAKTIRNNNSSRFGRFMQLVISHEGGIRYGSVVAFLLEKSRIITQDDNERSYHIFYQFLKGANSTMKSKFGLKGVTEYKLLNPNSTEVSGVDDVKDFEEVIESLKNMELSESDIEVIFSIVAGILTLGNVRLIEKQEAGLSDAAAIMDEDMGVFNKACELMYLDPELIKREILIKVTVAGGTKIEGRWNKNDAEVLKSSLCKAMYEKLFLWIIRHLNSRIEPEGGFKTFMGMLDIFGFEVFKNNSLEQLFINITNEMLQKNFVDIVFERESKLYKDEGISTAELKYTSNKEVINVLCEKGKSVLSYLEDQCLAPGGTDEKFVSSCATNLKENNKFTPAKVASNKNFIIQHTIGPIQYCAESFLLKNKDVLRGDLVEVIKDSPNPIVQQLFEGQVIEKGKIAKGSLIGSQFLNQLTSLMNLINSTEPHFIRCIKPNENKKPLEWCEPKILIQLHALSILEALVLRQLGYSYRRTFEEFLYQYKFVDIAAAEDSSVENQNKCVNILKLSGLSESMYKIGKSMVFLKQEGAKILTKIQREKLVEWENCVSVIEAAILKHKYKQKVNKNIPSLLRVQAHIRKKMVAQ
T1 sequence (Q8IJM4 1-134 partner): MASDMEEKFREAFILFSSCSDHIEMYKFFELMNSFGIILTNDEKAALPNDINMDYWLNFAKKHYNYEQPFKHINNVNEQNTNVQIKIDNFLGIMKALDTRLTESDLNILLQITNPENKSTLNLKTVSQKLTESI
T1 sequence (Q8I4W8 1-204 partner): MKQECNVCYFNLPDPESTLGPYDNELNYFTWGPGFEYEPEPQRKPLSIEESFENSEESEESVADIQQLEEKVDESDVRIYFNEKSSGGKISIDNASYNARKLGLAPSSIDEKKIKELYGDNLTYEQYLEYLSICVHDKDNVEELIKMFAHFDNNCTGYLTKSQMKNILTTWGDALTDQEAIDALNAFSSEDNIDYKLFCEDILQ

[1] = biological target: chicken smooth muscle myosin (Gallus gallus, UniProt P10587); format: biochemical; settings: 2 mM ATP, 3 mM MgCl2, 5 mM KCl, pH 7.4, 2% DMSO, 300 nM myosin, n = 2
Sequence of chicken smooth muscle myosin (P10587 2-1979): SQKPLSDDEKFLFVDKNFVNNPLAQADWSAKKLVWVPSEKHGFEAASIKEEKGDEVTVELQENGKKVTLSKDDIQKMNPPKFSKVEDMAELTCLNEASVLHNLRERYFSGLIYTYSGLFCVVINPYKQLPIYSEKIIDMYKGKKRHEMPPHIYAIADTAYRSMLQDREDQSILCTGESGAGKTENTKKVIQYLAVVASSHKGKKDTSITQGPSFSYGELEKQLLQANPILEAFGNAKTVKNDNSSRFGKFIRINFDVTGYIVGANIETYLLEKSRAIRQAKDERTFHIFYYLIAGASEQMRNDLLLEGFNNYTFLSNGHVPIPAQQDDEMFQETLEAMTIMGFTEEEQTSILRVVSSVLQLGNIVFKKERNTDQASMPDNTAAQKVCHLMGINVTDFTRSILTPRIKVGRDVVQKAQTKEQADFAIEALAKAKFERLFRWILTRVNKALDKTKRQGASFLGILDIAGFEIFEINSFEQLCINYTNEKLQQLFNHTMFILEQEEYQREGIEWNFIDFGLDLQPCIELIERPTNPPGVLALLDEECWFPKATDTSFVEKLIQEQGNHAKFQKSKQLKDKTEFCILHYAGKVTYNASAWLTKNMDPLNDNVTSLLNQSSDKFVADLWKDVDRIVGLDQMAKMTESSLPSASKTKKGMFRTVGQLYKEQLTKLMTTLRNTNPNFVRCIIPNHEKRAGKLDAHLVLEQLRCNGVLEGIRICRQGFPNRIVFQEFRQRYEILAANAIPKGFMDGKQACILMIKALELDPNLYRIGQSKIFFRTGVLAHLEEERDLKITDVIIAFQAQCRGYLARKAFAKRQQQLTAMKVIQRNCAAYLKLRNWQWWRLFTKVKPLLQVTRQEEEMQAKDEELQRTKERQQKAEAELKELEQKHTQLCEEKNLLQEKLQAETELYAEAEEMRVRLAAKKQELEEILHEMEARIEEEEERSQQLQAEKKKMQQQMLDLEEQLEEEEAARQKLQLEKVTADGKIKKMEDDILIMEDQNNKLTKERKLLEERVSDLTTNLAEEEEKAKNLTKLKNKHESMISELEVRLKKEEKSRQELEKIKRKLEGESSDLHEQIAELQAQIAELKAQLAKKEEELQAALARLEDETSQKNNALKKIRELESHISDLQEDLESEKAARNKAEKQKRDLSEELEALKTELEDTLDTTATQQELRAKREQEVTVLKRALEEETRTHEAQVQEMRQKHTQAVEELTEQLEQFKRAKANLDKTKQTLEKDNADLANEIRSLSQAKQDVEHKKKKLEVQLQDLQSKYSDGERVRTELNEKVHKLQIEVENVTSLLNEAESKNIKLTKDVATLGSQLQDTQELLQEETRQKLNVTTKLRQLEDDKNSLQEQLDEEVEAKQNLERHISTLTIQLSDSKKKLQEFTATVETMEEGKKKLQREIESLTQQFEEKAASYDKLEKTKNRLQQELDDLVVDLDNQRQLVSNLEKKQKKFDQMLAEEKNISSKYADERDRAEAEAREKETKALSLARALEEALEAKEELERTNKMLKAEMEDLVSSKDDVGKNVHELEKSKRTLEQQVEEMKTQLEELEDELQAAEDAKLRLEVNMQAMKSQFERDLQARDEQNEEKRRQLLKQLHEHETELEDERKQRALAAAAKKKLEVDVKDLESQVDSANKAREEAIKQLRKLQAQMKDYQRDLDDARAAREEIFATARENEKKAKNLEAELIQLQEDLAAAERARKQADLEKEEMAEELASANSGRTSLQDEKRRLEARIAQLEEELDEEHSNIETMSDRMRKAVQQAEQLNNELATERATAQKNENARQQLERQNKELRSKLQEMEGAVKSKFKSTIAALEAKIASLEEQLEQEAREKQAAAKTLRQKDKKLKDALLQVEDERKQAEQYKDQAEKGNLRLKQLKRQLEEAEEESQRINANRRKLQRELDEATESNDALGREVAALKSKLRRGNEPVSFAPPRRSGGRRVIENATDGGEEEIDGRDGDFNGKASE
Sequence of chicken smooth muscle myosin (P02607 2-151 partner): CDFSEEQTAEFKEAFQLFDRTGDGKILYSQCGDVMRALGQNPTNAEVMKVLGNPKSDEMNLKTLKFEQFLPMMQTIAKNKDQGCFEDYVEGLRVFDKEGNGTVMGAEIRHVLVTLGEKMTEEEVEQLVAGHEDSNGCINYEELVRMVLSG
Sequence of chicken smooth muscle myosin (P02612 2-172 partner): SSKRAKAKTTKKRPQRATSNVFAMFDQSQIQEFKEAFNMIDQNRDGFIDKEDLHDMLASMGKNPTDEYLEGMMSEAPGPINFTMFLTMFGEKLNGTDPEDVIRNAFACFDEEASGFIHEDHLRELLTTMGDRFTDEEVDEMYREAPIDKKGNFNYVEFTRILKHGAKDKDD

rabbit skeletal myosin = format: biochemical, Oryctolagus cuniculus; settings: 2 mM ATP, 3 mM MgCl2, 5 mM KCl, pH 7.4, 2% DMSO, 100 nM myosin, n = 6
bovine cardiac myosin = bovine cardiac myosin (Bos taurus, UniProt Q9BE39); format: biochemical; settings: 2 mM ATP, 3 mM MgCl2, 5 mM KCl, pH 7.4, 2% DMSO, 200 nM myosin, n = 3
Sequence of bovine cardiac myosin (Q9BE39 whole entry): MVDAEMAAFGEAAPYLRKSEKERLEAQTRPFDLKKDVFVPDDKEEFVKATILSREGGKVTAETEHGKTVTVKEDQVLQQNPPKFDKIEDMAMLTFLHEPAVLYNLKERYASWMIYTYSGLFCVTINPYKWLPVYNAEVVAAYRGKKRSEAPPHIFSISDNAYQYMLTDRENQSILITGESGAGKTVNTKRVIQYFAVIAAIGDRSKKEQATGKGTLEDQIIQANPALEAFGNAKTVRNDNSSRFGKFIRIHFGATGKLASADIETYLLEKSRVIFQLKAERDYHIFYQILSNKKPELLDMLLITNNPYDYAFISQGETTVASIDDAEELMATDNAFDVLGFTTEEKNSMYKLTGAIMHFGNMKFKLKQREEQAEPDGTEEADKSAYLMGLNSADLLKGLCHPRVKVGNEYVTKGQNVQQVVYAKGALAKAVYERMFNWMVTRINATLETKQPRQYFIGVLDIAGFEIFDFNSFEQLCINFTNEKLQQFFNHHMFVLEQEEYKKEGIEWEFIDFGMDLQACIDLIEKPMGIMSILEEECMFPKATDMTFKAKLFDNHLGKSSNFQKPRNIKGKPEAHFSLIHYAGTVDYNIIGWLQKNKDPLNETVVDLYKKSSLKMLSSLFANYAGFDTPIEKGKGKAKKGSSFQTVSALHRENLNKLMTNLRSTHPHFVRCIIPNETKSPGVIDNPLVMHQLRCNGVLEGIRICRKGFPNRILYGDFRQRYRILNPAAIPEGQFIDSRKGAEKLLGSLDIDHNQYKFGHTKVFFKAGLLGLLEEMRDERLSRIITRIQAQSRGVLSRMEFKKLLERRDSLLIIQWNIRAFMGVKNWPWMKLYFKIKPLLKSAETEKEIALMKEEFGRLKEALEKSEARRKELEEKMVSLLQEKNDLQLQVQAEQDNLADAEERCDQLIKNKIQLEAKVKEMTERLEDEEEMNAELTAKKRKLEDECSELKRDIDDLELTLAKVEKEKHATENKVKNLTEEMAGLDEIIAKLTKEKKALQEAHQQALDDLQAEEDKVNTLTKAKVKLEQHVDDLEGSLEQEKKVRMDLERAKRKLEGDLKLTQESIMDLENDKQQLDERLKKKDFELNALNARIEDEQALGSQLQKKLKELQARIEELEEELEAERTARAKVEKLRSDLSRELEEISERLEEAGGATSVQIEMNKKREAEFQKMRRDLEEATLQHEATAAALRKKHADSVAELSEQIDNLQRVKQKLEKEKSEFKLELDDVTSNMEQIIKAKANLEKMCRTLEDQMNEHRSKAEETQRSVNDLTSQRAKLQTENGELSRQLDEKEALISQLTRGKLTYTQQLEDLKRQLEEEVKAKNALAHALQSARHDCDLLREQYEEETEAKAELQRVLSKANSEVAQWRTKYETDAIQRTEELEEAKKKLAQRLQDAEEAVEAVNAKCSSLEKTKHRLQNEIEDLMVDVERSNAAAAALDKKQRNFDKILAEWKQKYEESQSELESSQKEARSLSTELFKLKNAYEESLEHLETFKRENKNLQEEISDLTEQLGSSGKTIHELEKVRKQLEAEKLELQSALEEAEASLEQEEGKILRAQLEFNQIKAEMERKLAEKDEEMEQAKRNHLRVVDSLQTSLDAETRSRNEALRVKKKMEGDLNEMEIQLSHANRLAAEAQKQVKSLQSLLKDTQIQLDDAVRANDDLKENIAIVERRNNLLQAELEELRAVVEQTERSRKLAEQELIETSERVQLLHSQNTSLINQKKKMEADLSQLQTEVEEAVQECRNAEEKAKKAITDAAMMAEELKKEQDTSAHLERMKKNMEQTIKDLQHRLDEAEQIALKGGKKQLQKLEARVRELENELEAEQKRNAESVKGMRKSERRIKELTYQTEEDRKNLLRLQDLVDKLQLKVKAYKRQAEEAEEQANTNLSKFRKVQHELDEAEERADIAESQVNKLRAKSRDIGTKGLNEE
Sequence of bovine cardiac myosin (P85100 2-199 partner): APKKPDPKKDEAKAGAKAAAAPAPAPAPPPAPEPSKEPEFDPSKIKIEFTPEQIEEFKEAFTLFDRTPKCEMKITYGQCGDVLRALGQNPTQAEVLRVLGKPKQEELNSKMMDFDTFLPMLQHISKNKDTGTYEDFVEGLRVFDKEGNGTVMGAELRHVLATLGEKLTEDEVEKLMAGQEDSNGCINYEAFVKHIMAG
Sequence of bovine cardiac myosin (Q3SZE5 2-166 partner): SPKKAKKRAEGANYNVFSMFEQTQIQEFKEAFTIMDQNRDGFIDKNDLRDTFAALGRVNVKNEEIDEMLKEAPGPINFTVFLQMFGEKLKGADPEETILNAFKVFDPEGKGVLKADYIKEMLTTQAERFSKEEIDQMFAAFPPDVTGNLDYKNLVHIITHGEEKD

| Compound | IC50 (PfMyoA) [nM] | IC50 [1] [nM] | IC50 (rabbit skeletal myosin) [nM] | IC50 (bovine cardiac myosin) [nM] |
| --- | --- | --- | --- | --- |
| COc1ccc(C2(NCc3c[nH]nc3-c3cccs3)CC2)cc1 [KNX-002] | 400 ± 100 | – | – | – |
| KNX-115 | – | > 50000 | 1000 ± 400 | 10000 ± 6400 |
